Reference: article PMC6361113 (Cancer chemotherapy and pharmacology, 2017)
Values joined by “and” are separate entries in the source; they are usually repeats but may differ in a detail not shown here. Equal entries are not always repeated. Where two headings read alike, the source gives them in different places.

Columns and labels:
[1] = Population pharmacokinetic; format: in vivo, human
[2] = cited from earlier work
[3] = cited from earlier work; remark: listed apart in the source
blood/PMBCs = conditions: in vitro; cited from earlier work
[4] = olaparib tablets 200 mg, noncompartmental; cited from earlier work
[5] = cited from earlier work; remark: listed apart in the source
[6] = cited from earlier work; remark: listed apart in the source
[7] = cited from earlier work; remark: listed apart in the source
[8] = format: in vivo, human
[9] = cited from earlier work; remark: listed apart in the source
[10] = final population PK model, inter-individual variability
[11] = olaparib monotherapy, clinical trials
[12] = n = 4, ref unpublished findings from the drug sponsor (NCT00516724)
[13] = ref unpublished findings from the drug sponsor
[14] = 400 mg capsule dose, estimated range
[15] = 400 mg capsule dose, typical averages
[16] = patients with CLcr = 50–80 mL/min, prescribing information
[17] = prescribing information, 400 mg BID capsules
[18] = this study, carboplatin pre-treatment

O=C(c1cc(Cc2n[nH]c(=O)c3ccccc23)ccc1F)N1CCN(C(=O)C2CC2)CC1 [olaparib]
IIV CL/F bootstrap estimate (%RSE) ([1]; bootstrap, 1000 replicates): 57.0% (7.06%) %CV
IIV Tlag bootstrap estimate (%RSE) ([1]; bootstrap, 1000 replicates): 70.7% (19.6%) %CV
IIV V/F bootstrap estimate (%RSE) ([1]; bootstrap, 1000 replicates): 38.4% (9.78%) %CV
BSV on the CL/F parameter explained by carboplatin covariate ([1]; final covariate model): ~2%
IIV CL/F point estimate (%RSE) ([1]; final population PK model, inter-individual (between-subject) variability): 55.0% (7.98%) %CV
IIV Tlag point estimate (%RSE) [1, 10]: 87.1% (13.5%) %CV
IIV V/F point estimate (%RSE) [1, 10]: 37.3% (9.23%) %CV
change in volume of distribution relative to carboplatin pretreatment ([1]; in vivo): No change in volume of distribution
correlation (r) of creatinine clearance with olaparib clearance ([1]; population model): < 0.005
CL/F point estimate, previous population PK model ([2]; 100 mg olaparib tablets BID with cisplatin and gemcitabine, 23 advanced cancer patients): 6.48 L/h and 6.5 L/h
V/F point estimate, previous population PK model ([2]; 100 mg olaparib tablets BID with cisplatin and gemcitabine, 23 patients): 38.7 L
half-life of first dose olaparib, previous population PK model ([2]; 100 mg olaparib tablets BID with cisplatin and gemcitabine): 4 h
absorption rate (Ka), previous population PK model ([2]; single compartment absorption model): 2 h⁻¹
patients having hematologic toxicity ([3]; olaparib capsules combined with carboplatin, likely due to carboplatin): 82%
grade 1–2 fatigue [3, 11]: ~30%
grade 1–2 nausea [3, 11]: ~32%
grade 1–2 vomiting [3, 11]: ~20%
intracellular olaparib when blood/PMBCs were pretreated with carboplatin (blood/PMBCs): greater intracellular olaparib
CL/F NCA estimate [4]: 6.08 L/h
change in olaparib plasma protein binding by carboplatin [5]: no change in olaparib plasma protein binding
lower olaparib CMAX with carboplatin pre-exposure [6, 12]: 14.8%
lower steady state olaparib AUC with carboplatin pre-exposure [6, 12]: 11.0%
lower olaparib AUC with carboplatin pre-exposure [6, 13]: 14%
lower olaparib CMAX with carboplatin pre-exposure [6, 13]: 17%
clearance [7, 14]: 7.0 to 10.8 L/h
volume of distribution [7, 14]: 107 to 210 L
AUC [7, 15]: 10000 to 70000 ng·h/mL
CMax [7, 15]: 1 to 6.4 µg/mL
CL/F, other literature value [7]: 4.6 L/h
V/F, other literature value [7]: 40.3 L
half-life ([7]; elimination rate calculated over a 72-h period): 12 h
increase in olaparib AUC in mild renal impairment [7, 16]: 1.2 fold
increase in olaparib CMAX in mild renal impairment [7, 16]: 1.5 fold
apparent plasma CL/F [7, 17]: 8.6 (±7.1) L/h
apparent volume of distribution at steady-state (Vss/F) [7, 17]: 167 (±196) L
AUC mean ([7]; tablet dose of 200 mg): 43000 ng·h/mL
CL/F mean ([7]; tablet dose of 200 mg): 7.95 L/h
CMAX mean ([7]; tablet dose of 200 mg): 7 µg/mL
V/F mean ([7]; tablet dose of 200 mg): 146 L
half-life ([8]; human, plasma, oral, 200 mg): ~3 h
V/F, first 200 mg dose of olaparib alone ([8]; this study, Group A C1D1, before carboplatin): 31.1 L
decrease in olaparib AUCLAST in presence of carboplatin [8, 18]: 1.3 fold
decrease in olaparib CMAX in presence of carboplatin [8, 18]: 1.2 fold

N.N.O=C([O-])C1(C(=O)[O-])CCC1.[Pt+2] [carboplatin]
terminal plasma half-life [9]: 2 to 3 h
plasma protein binding ([9]; human, in vivo): not plasma protein bound
dose excreted within 12 h ([9]; patients with normal renal function (CLcr > 60 mL/min)): 65%
